Usually Kd stands for the equilibrium constant for the complex coming apart. A word on the IC50: it is the concentration that inhibits the measured activity by half.

The first experiment concerns the target Hsp90α (Homo sapiens, UniProt P07900). Briefly: Surface plasmon resonance binding to immobilized Hsp90α. Set-up: purchased Stress-gen Bioreagents Corporation, Victoria, Canada SPP-776. The settings on record: SPR, 25 °C, mean ± standard deviation (n = 3). Here is the method: 1 and 4 μM), and, for each sample, a complete binding study was carried out in triplicate. The experiments were performed at 25 °C, using a flow rate of 50 μL/min, with 60 s monitoring of association and 300 s monitoring of dissociation. Changes in mass, due to the binding response, were recorded as resonance units (RU). To obtain the dissociation constant (KD), these responses were fit to a 1:1 Langmuir binding model by nonlinear regression, using the BiaEvaluation sofware program (GE Healthcare). Simple interactions were suitably fitted to a single-site bimolecular interaction model (A + B = AB), yielding a single KD.
(SPR reads the build-up and loss of mass on a sensor chip optically.)
`CC(=O)O[C@H]1C[C@@]2(C)[C@H](c3ccoc3)OC(=O)[C@H]3O[C@]32[C@@]2(C)[C@H]1[C@@]1(C)C=CC(=O)OC(C)(C)[C@@H]1C[C@H]2OC(C)=O` [Compound 11, 11β-acetoxybacunyl acetate] came in with a Kd of 25.3 ± 1.8 nM.
Regarding `COC(=O)C[C@H](OC(C)=O)[C@]1(C)[C@H]2[C@@H](OC(C)=O)C[C@@]3(C)[C@H](c4ccoc4)OC(=O)[C@H]4O[C@]43[C@]2(C)[C@H](OC(C)=O)C[C@H]1C(C)(C)O` [Compound 12, odoralide], the KD entry is “no binding”.
With `COC(=O)[C@@H](OC(C)=O)[C@H]1C(C)(C)[C@H](O)[C@@H]2CC3=C4CC(=O)O[C@@H](c5ccoc5)[C@]4(C)CC[C@@H]3[C@@]1(C)C2=O` [Compound 13, 6-O-acetylswietenolide], binding was characterised by a dissociation constant (Kd) of 25.5 ± 3.4 nM.
As for `CC(=O)O[C@H]1CC(=O)OC(C)(C)[C@@H]2C[C@@H](OC(C)=O)[C@@]3(C)C4=CC[C@@H](C(O)(CO)CCO)[C@]4(C)CC[C@@H]3[C@@]12C` (stereo partly drawn) [Compound 7, cedrelosin F], the KD entry is “no binding”.
On the same count and under the same terms, for `C/C=C(\C)C(=O)O[C@@H]1/C=C\C2=C3CC(=O)O[C@@H](c4ccoc4)[C@]3(C)CC[C@]2(O)[C@]2(C)C(=O)C[C@@]1(C)[C@@H]2CC(=O)OC` (relative stereo) [Compound 3, (9R*)-hydroxychisomicine A] the value was “no binding”.
Consider `CC(=O)O[C@H]1C[C@@]2(C)[C@H](C3=C[C@@H](O)OC3=O)OC(=O)[C@H]3O[C@]32[C@@]2(C)[C@H]1[C@@]13COC(=O)C[C@@H]1OC(C)(C)[C@@H]3C[C@H]2OC(C)=O` [Compound 9, 11β-acetoxycedrelosin B], for which the KD entry was “low affinity” and the Kd came to 183 ± 18.9 nM.
In the case of `CC(=O)O[C@H]1C[C@@]2(C)[C@H](c3ccoc3)OC(=O)[C@H]3O[C@]32[C@@]2(C)[C@H]1[C@@]1(C)[C@@H](OC(C)=O)CC(=O)OC(C)(C)[C@@H]1C[C@H]2OC(C)=O` [Compound 10, 7α,11β-diacetoxydihydronomilin], the KD result was “no binding”.
Same read-out and setting: next, `COC(=O)C[C@H]1C(C)(C)[C@H](OC(=O)C(O)C(C)C)[C@@H]2C=C3C4CC(=O)O[C@@H](c5ccoc5)[C@]4(C)CC[C@@H]3[C@@]1(C)C2=O` (stereo partly drawn) [Compound 4, 3-(2′-hydroxyisovaleroyl)khasenegasin I]: “no binding”; `C=C(C)C(=O)O[C@@H]1/C=C\[C@]2(O)C3=CC(=O)O[C@@H](c4ccoc4)[C@]3(C)CC[C@]2(O)[C@]2(C)C(=O)C[C@@]1(C)[C@@H]2CC(=O)OC` [Compound 2, chisomicine E]: “no binding”.
With `CC(=O)O[C@H]1C[C@@]2(C)[C@H](c3ccoc3)OC(=O)[C@H]3O[C@]32[C@]2(C)[C@H](O)C[C@H]3C(C)(C)O[C@H]4CC(=O)OC[C@]43[C@@H]12` [Compound 8, 11β-acetoxylimonol], binding was characterised by a dissociation constant (Kd) of 24.8 ± 2.3 nM.
For the molecule `COC(=O)C[C@H]1C(C)(C)[C@H](O)[C@@H]2CC3=C4CC(=O)O[C@@H](c5ccoc5)[C@]4(C)CC[C@@H]3[C@@]1(C)C2=O` [Compound 14, proceranolide], the KD result was “no binding”.
`CC(=O)O[C@H]1C[C@@]2(C)[C@H](C3=CC(=O)O[C@@H]3O)OC(=O)[C@H]3O[C@]32[C@@]2(C)[C@H]1[C@@]1(C)[C@@H](OC(C)=O)CC(=O)OC(C)(C)[C@@H]1C[C@H]2OC(C)=O` [Compound 6, 1,2-dihydro-7-deoxo-1α,7α,11β-triacetoxykihadanin A]: the KD entry is on record as “no binding”.
Same read-out and setting: next, `CC(=O)O[C@H]1C[C@@]2(C)[C@H](C3=CC(=O)O[C@@H]3O)OC(=O)[C@H]3O[C@]32[C@@]2(C)[C@H]1[C@@]1(C)C=CC(=O)OC(C)(C)[C@@H]1C[C@H]2OC(C)=O` [Compound 5, 7-deoxo-7α,11β-diacetoxykihadanin A]: “no binding”.

Another experiment deals with U937 (human myeloid leukemia) cell line. Briefly: MTT cell viability, U937. The class given is cell-based. The conditions noted are these: U-937, 48 h, positive control for HeLa and U937, cell line not specified, read-out: IC50 of positive control. The method, then: HeLa (cervical carcinoma) and U937 (pro-monocytic, human myeloid leukemia) cell lines were purchased from the American Type Cell Culture (ATCC) (Rockville, MD, USA). HeLa cells were maintained in DMEM, and U937 were cultured in RPMI 1640, both supplemented with 10% FBS, 100 mg/L streptomycin, and penicillin 100 IU/mL at 37 °C in a humidified atmosphere of 5% CO2. To ensure logarithmic growth, cells were subcultured every 2 days. Stock solutions of compound in DMSO were stored in the dark at 4 °C. Appropriate dilutions were prepared in culture medium immediately prior to use. […] PBMCs were isolated from buffy coats of healthy donors (kindly provided by the Blood Center of the Hospital of Battipaglia, Italy) by using standard Ficoll-Hypaque gradients. PBMCs were incubated with DMSO or compound 1 at 30 μM for 48 h. […] The number of viable cells was quantified by the MTT [3-(4,5-dimethylthiazol-2-yl)-2,5-diphenyl tetrazolium bromide] assay. Absorption at 550 nm for each well was assessed using Multiskan GO (Thermo Scientific). Half-maximal inhibitory concentration (IC50) values were calculated using GraphPad Prism 8. Experiments were performed in technical triplicates and repeated two times with similar results.
Regarding `C[C@@H]1C[C@H]2O[C@@H]2/C=C\C=C\C(=O)Cc2c(Cl)c(O)cc(O)c2C(=O)O1` [radicicol, reference compound], the IC50 stood at 250 nM.

The record behind these values is paper PMC8041370, “Limonoids from Guarea guidonia and Cedrela odorata: Heat Shock Protein 90 (Hsp90) Modulator Properties of Chisomicine D” (Journal of Natural Products, 2021).
